This note sets out measurements from US8822503B2, “2-pyridone compounds” (Taisho Pharmaceutical Co., Ltd, priority 2009, dated 2014).

The structures appear in SMILES notation.

The experiment concerns the target T1, human liver GK (Homo sapiens, UniProt P35557).
T1 construct: GST (glutathione S-transferase) (N); made in house; host or cells: E. coli
T1 sequence (P35557 1-466 isoform P35557-2): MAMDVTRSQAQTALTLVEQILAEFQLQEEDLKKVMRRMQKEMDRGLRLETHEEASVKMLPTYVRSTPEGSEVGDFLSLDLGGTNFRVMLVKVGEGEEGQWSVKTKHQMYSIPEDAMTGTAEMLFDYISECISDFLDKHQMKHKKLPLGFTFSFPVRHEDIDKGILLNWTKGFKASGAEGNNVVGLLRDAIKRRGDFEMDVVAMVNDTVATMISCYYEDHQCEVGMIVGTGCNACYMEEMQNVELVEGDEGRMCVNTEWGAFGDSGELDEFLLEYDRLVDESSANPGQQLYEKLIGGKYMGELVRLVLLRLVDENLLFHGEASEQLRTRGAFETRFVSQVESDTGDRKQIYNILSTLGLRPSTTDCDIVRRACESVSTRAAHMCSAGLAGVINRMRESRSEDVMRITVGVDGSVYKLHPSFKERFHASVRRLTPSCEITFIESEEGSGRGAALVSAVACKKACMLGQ
The experiment in a line: GK activation test. Format: biochemical. The conditions noted are these: test compound concentration needed to activate 50% of maximum activation ability; 4 mM 14C-labeled glucose, 2 mM ATP, room temperature, 20 minutes. As to the method:
The GK activation test for the test compounds was performed by the method of Irwin A. Rose et al. (J. Biol. Chem. 1964 January; 239:12-7) with partial modifications.
The enzyme source used in this assay, human liver GK, was expressed in E. coli as a fusion protein with GST (glutathione S-transferase) added to the amino terminus and was purified using Glutathione Sepharose 4B (Amersham Biosciences).
The test was carried out using flat-bottom 96-well plates (Sumitomo Bakelite Co., Ltd.). A solution of the test compound in dimethyl sulfoxide (DMSO) and DMSO as a control were added to each well of the plates at a final DMSO concentration of 1%. 25 mM Hepes-KOH (pH=7.1), 25 mM KCl, 2 mM MgCl2, 2 mM ATP, 4 mM ^14C-labeled glucose (Muromachi Yakuhin) and 1 mM DTT (dithiothreitol) were further added at the indicated final concentrations, respectively. Finally, human liver GK was added at 0.24 microgram per well and the reaction was started. The reaction was carried out at room temperature.
After 20 minutes, AG1-X4 resin (BioRad) suspended in 25 mM Hepes-KOH (pH=7.1) was added and the reaction product, labeled glucose 6-phosphate, was allowed to bind thereto. The whole volume was transferred to MultiScreen plates (Millipore) and the resin was washed with water. Thereafter, the labeled glucose 6-phosphate binding to the resin was eluted with a 0.5 M NaCl solution. The labeling activity of the eluted labeled glucose 6-phosphate was measured as an index of GK activity.
The GK activity maximally activated by the test compound was described as maximum activation ability, and the test compound concentration needed to activate 50% of that ability was described as EC50.

Turning to `CCc1ccc(C(C[C@H]2CCC(=O)N2)c2ccc(Cl)c(=O)[nH]2)cc1` (single isomer, unassigned) [Example 4-308], the 50% effective concentration (EC50) is 0.5 to 3 µM. To `CCc1ccc(C(C[C@H]2CCC(=O)N2)c2ccc(Cl)c(=O)[nH]2)cc1` (single isomer, unassigned) [Example 4-309] belongs 3 to 10 µM; to `Cc1ccc(C(C[C@H]2CCC(=O)N2)c2ccc(Cl)c(=O)[nH]2)cc1Cl` (single isomer, unassigned) [Example 4-310], 0.5 to 3 µM; to `Cc1ccc(C(C[C@H]2CCC(=O)N2)c2ccc(Cl)c(=O)[nH]2)cc1Cl` (single isomer, unassigned) [Example 4-311], 3 to 10 µM.

Molecule `CCCc1ccc(C(C[C@H]2CCC(=O)N2)c2ccc(Cl)c(=O)[nH]2)cc1` (single isomer, unassigned) [Example 4-312] registered an EC50 of 0.5 to 3 µM. For `CC(C)(C)c1ccc(C(C[C@H]2CCC(=O)N2)c2ccc(C(F)(F)F)c(=O)[nH]2)cc1` (single isomer, unassigned) [Example 4-314] the value was 0.5 to 3 µM. On to `CC(C)(C)c1ccc(C(C[C@H]2CCC(=O)N2)c2ccc(C(F)(F)F)c(=O)[nH]2)cc1` (single isomer, unassigned) [Example 4-315], for which the concentration for a half-maximal effect (EC50) lay in the range of 3 to 10 µM.

Take `O=C1CC[C@H](CC(c2ccc(C3CC3)cc2)c2ccc(Cl)c(=O)[nH]2)N1` (single isomer, unassigned) [Example 4-316]: the EC50 lay within 3 to 10 µM. Consider `O=C1CC[C@H](CC(c2ccc(C3CC3)cc2)c2ccc(Cl)c(=O)[nH]2)N1` (single isomer, unassigned) [Example 4-317], for which the EC50 lay within 0.5 to 3 µM. In the case of `Cc1ccc(C(C[C@H]2CCC(=O)N2)c2ccc(Cl)c(=O)[nH]2)cc1` (single isomer, unassigned) [Example 4-318], the concentration giving a half-maximal response (EC50) was in the range of 3 to 10 µM. For `CC(C)c1ccc(C(C[C@H]2CCC(=O)N2)c2ccc(C3CC3)c(=O)[nH]2)cc1Cl` (single isomer, unassigned) [Example 4-320] the value was 0.01 to 0.5 µM. To `CC(C)c1ccc(C(C[C@H]2CCC(=O)N2)c2ccc(C3CC3)c(=O)[nH]2)cc1Cl` (single isomer, unassigned) [Example 4-321] belongs 0.5 to 3 µM; to `CC(C)Oc1ccc(C(C[C@H]2CCC(=O)N2)c2ccc(C3CC3)c(=O)[nH]2)cc1Cl` (single isomer, unassigned) [Example 4-322], 0.01 to 0.5 µM.

As for `CC(C)Oc1ccc(C(C[C@H]2CCC(=O)N2)c2ccc(C3CC3)c(=O)[nH]2)cc1Cl` (single isomer, unassigned) [Example 4-323], the 50% effective concentration (EC50) is 3 to 10 µM.

For the molecule `CCc1ccc(C(C[C@H]2CCC(=O)N2)c2ccc(Cl)c(=O)[nH]2)cc1Cl` (single isomer, unassigned) [Example 4-324], the EC50 was 0.5 to 3 µM. For `CCc1ccc(C(C[C@H]2CCC(=O)N2)c2ccc(Cl)c(=O)[nH]2)cc1Cl` (single isomer, unassigned) [Example 4-325] the value was 3 to 10 µM; for `COc1ccc(C(C[C@H]2CCC(=O)N2)c2ccc(C3CC3)c(=O)[nH]2)cc1Cl` (single isomer, unassigned) [Example 4-326], 0.01 to 0.5 µM. With `COc1ccc(C(C[C@H]2CCC(=O)N2)c2ccc(C3CC3)c(=O)[nH]2)cc1Cl` (single isomer, unassigned) [Example 4-327], the EC50 was in the range of 3 to 10 µM. To `CCOc1ccc(C(C[C@H]2CCC(=O)N2)c2ccc(C3CC3)c(=O)[nH]2)cc1` (single isomer, unassigned) [Example 4-328] belongs 0.5 to 3 µM; to `Cc1cc(C(C[C@H]2CCC(=O)N2)c2ccc(C3CC3)c(=O)[nH]2)ccc1C(F)(F)F` (single isomer, unassigned) [Example 4-330], 0.5 to 3 µM; to `Cc1cc(C(C[C@H]2CCC(=O)N2)c2ccc(C3CC3)c(=O)[nH]2)ccc1C(F)(F)F` (single isomer, unassigned) [Example 4-331], 3 to 10 µM. For `O=C1CC[C@H](CC(c2ccc(C3CC3)c(=O)[nH]2)c2ccc(C(F)(F)F)cc2F)N1` (single isomer, unassigned) [Example 4-332] the value was 0.5 to 3 µM.

Broadly, the EC50 is the concentration needed to bring the measured effect to its halfway point. Higher therefore signals lower potency in that assay.
